The test system of series [1] is cytochrome P450-2D6 enzyme. Conditions: cited from earlier work.
For a further series, the system named is pain. Conditions: DM combined with morphine; published reports; cited from earlier work.
In series [2] the test system is morphine and anti-depressant dependence. Put plainly: Patient Number 1, initial 3-week trial of DM alone (neuropathic pain, weaning from morphine and anti-depressants). Format: in vivo, human. The source says: They took capsules with 30 milligrams of DM, twice each day.
For series [3] the following is noted: coadministration with DM; cited from earlier work.
[4] abbreviates: DM 30 mg twice a day, oral, about three weeks, no quinidine.
Setting [5] is: read-out: Michaelis-Menton inhibition (Ki) value, P450-2D6, in vitro, Inaba et al 1985.

These results are taken from patent US6207674A, “Dextromethorphan and oxidase inhibitor for weaning patients from narcotics and anti-depressants” (priority 1999, dated 2001).

Where two headings read alike, the source gives them in different places.

Consider `COCCc1ccc(OCC(O)CNC(C)C)cc1` (racemic) [metaprolol], for which the inhibitory constant (Ki) – broadly, the equilibrium dissociation constant of an inhibitor or competing ligand from its target – in series [1] was 18 µM. For the compound `COc1ccc2c(c1)[C@]13CCCC[C@@H]1[C@H](C2)N(C)CC3` [DM, dextromethorphan], the “potentiation of pain-relieving activity of morphine” value with pain is reported as “potentiated the pain-relieving activity of morphine”. Besides, in series [2] (setting [4]), the “symptoms reported at follow-up exam” value is recorded as “symptoms were unchanged”; the “use and dosages of morphine and WELLBUTRIN” value is “remained the same”. For the same compound, the “nighttime dosage of ELAVIL at follow-up” value in series [2] (reduced from 250 mg, DM 30 mg twice a day, about three weeks, no quinidine) came to 100 mg. In addition, the “overall result of DM by itself (summary)” value in series [2] (without an oxidase inhibitor) is listed as “no substantial benefit”.

For `CNCCC(Oc1ccc(C(F)(F)F)cc1)c1ccccc1` (stereo not shown) [Fluoxetine, fluoxetine], the “effect on DM concentration / level in blood” value in series [3] was “increase the concentrations of DM”.

Take `C=C[C@H]1C[N@@]2CC[C@H]1C[C@@H]2[C@@H](O)c1ccnc2ccc(OC)cc12` [Quinidine, quinidine]: the “effect on DM concentration / level in blood” value in series [3] was “increase the level of DM in the blood of most patients”. The Ki in series [1] (setting [5]) is 0.06 µM. `CC[C@H]1[C@@H]2C[C@H]3[C@@H]4N(C)c5ccccc5[C@]45C[C@@H]([C@H]2[C@H]5O)N3[C@@H]1O` [ajmaline]: in series [1] (setting [5]), the Ki was 2 µM. Turning to `O=c1[nH]c2ccccc2n1CCCN1CCC(n2c(=O)[nH]c3cc(Cl)ccc32)CC1` [domperidone], in series [1] (setting [5]), the inhibition constant (Ki) was 8 µM.

Consider `O=C(CCCN1CCC(O)(c2ccc(Cl)cc2)CC1)c1ccc(F)cc1` [haloperidol], for which, in series [1], the inhibitory constant (Ki) is 1 µM.

In the case of `CC(CCc1ccccc1)NCC(O)c1ccc(O)c(C(N)=O)c1` (stereo not shown) [labetalol], the inhibition constant (Ki) in series [1] (setting [5]) is 7 µM. With `CN1[C@@H](CC(=O)c2ccccc2)CCC[C@H]1C[C@H](O)c1ccccc1` [lobeline], in series [1] (setting [5]), the Ki is 2 µM.

In the case of `Cc1cccc(C)c1OCC(C)N` (stereo not shown) [mexiletine], in series [1] (setting [5]), the Ki was 30 µM. Take `CNCCC=C1c2ccccc2CCc2ccccc21` [nortriptyline]: in series [1] (setting [5]), the Ki was 15 µM. On to `C=CCOc1ccccc1OCC(O)CNC(C)C` (stereo not shown) [oxprenolol], for which the Ki in series [1] (setting [5]) was 15 µM. Turning to `COc1ccc(Cc2nccc3cc(OC)c(OC)cc23)cc1OC` [papaverine], the Ki in series [1] (setting [5]) was 25 µM. For `NC(=O)C1(N2CCCCC2)CCN(CCCC(=O)c2ccc(F)cc2)CC1` [pipamperone], in series [1], the Ki is 4 µM. `CC(C)NCC(O)COc1cccc2ccccc12` (stereo not shown) [propranolol]: the Ki in series [1] (setting [5]) was 15 µM. With `C=C[C@H]1C[N@@]2CC[C@H]1C[C@H]2[C@H](O)c1ccnc2ccc(OC)cc12` [quinine], the inhibition constant Ki in series [1] (setting [5]) is 15 µM.

For the compound `CC(C)(C)NC[C@H](O)COc1nsnc1N1CCOCC1` [timolol], the Ki in series [1] (setting [5]) was 18 µM.
